Where a name gives a salt, the structure may show the parent alone.
Experiments:
[1] = biological target: human VAP-1 enzyme (SSAO) (Homo sapiens (Human), UniProt Q16853); assay: Inhibitory effect on human VAP-1 enzyme (SSAO), radiochemical-enzyme assay using 14C-benzylamine; assay type: biochemical; settings: human VAP-1 expressed in a cell, cell extract; 14C-benzylamine 1×10^−5 mol/L; 37° C., 2 hours
Procedure: (§1) The compounds of the present invention obtained in Production Examples were examined for the inhibitory effect on human and rat VAP-1 enzyme (SSAO) by the following method.
(§2) The VAP-1 enzyme (SSAO) activity in both human and rat was measured by a radiochemical-enzyme assay using ^14C-benzylamine as an artificial substrate. Human or rat VAP-1 was cloned from the cDNA library and expressed in a cell. The cell extract was preincubated with a test compound solution (final concentration 1×10^−7-1×10^−10 mol/L) at room temperature for 20 minutes. Then, ^14C-benzylamine (final concentration 1×10^−5 mol/L) was added, and the mixture was incubated at a final volume of 200 μL at 37° C. for 2 hours. The enzyme reaction was stopped by addition of 2 mol/L (200 μL) citric acid. The oxidation product was extracted with 1 mL toluene/ethyl acetate (1:1), and the radioactivity thereof was measured by a liquid scintillation counter.

rat VAP-1 enzyme (SSAO) = rat VAP-1 enzyme (SSAO) (Rattus norvegicus (Rat), UniProt O08590); assay: Inhibitory effect on rat VAP-1 enzyme (SSAO), radiochemical-enzyme assay using 14C-benzylamine; assay type: biochemical; settings: rat VAP-1 expressed in a cell, cell extract; 14C-benzylamine 1×10^−5 mol/L; 37° C., 2 hours
Chain of rat VAP-1 enzyme (SSAO) (O08590 whole entry): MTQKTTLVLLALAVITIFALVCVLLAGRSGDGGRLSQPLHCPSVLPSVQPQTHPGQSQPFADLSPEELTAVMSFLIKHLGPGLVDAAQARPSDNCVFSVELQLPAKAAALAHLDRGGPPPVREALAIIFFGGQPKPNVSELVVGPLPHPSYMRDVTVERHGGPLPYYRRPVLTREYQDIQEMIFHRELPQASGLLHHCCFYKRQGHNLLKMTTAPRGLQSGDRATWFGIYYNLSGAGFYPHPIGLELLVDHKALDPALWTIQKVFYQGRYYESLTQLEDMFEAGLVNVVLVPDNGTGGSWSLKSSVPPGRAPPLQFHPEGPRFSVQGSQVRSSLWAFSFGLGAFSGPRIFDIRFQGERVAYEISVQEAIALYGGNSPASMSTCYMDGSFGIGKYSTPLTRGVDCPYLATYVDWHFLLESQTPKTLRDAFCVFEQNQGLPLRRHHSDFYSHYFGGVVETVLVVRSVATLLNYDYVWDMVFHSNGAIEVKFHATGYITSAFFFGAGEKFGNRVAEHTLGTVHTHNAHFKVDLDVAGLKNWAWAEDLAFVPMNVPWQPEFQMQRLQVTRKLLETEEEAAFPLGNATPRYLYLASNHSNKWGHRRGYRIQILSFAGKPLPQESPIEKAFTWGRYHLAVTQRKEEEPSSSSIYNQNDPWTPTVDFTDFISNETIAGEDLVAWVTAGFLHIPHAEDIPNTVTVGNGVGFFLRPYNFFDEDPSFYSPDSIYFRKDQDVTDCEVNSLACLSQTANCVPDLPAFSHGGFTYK
Procedure: as §1, §2

Chain of human VAP-1 enzyme (SSAO) (Q16853 whole entry): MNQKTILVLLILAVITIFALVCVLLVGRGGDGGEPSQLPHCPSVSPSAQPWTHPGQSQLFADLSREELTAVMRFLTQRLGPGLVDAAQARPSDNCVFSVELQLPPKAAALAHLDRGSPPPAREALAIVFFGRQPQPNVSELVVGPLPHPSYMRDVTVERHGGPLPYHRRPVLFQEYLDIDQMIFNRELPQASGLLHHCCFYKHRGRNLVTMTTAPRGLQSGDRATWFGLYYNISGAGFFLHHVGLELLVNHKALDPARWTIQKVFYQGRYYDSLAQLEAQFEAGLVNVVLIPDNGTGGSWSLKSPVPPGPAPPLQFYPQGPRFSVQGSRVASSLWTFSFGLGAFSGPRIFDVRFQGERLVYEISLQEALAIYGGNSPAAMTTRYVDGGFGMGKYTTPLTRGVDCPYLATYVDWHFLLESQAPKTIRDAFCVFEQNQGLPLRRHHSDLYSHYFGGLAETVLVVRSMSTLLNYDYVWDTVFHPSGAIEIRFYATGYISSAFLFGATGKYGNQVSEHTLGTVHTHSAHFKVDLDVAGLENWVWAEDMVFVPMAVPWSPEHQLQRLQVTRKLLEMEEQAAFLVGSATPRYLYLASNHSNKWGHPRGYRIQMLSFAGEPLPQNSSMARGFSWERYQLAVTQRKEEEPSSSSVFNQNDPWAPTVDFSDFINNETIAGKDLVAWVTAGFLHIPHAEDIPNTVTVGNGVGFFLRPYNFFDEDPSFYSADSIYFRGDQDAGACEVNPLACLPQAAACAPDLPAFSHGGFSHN

IC50 [1]	IC50 (rat VAP-1 enzyme (SSAO))	SMILES
20.8 nM	1.1 nM	NNC(=O)Cc1ccc(CCc2ccc(N3CCOCC3)nc2)cc1 [Production Example 12, {4-[2-(6-morpholin-4-ylpyridin-3-yl)ethyl]phenyl}acetohydrazide dihydrochloride]
16.1 nM	3.6 nM	CC(=O)N1CCN(c2ccc(CCc3ccc(CC(=O)NN)cc3)cn2)CC1 [Production Example 47, 2-(4-{2-[6-(4-acetylpiperazin-1-yl)pyridin-3-yl]ethyl}phenyl)acetohydrazide trihydrochloride]
11.3 nM	6.1 nM	NNC(=O)Cc1ccc(CCc2ccc(N3CCNCC3)cc2C(F)(F)F)cc1 [Production Example 59, 2-(4-{2-[4-piperazin-1-yl-2-(trifluoromethyl)phenyl]ethyl}phenyl)acetohydrazide trihydrochloride]
17.6 nM	1.3 nM	NNC(=O)Cc1ccc(CCc2ccc(CN3CCOCC3)cc2)cc1 [Production Example 70, 2-(4-{2-[4-(morpholin-4-ylmethyl)phenyl]ethyl}phenyl)acetohydrazide dihydrochloride]
12.2 nM	4.1 nM	NNC(=O)Cc1ccc(CCc2ccc(N3CCNCC3)s2)cc1 [Production Example 74, 2-{4-[2-(5-piperazin-1-ylthiophen-2-yl)ethyl]phenyl}acetohydrazide trihydrochloride]
15.7 nM	1.9 nM	CCN(CC)c1ccc(CCc2ccc(CC(=O)NN)cc2)cn1 [Production Example 85, 2-(4-{2-[6-(diethylamino)pyridin-3-yl]ethyl}phenyl)acetohydrazide trihydrochloride]
15.4 nM	0.9 nM	CCN(C)c1ccc(CCc2ccc(CC(=O)NN)cc2)cn1 [Production Example 89, 2-[4-(2-{6-[ethyl(methyl)amino]pyridin-3-yl}ethyl)phenyl]acetohydrazide trihydrochloride]
22.1 nM	1.4 nM	CCCN(C)c1ccc(CCc2ccc(CC(=O)NN)cc2)cn1 [Production Example 90, 2-[4-(2-{6-[methyl(propyl)amino]pyridin-3-yl}ethyl)phenyl]acetohydrazide trihydrochloride]
20.5 nM	0.8 nM	CCCN(CCC)c1ccc(CCc2ccc(CC(=O)NN)cc2)cn1 [Production Example 92, 2-(4-{2-[6-(dipropylamino)pyridin-3-yl]ethyl}phenyl)acetohydrazide trihydrochloride]
6.3 nM	3.5 nM	NNC(=O)Cc1ccc(CCc2csc(N3CCNCC3)n2)cc1 [Production Example 95, 2-{4-[2-(2-piperazin-1-yl-1,3-thiazol-4-yl)ethyl]phenyl}acetohydrazide dihydrochloride]
13.5 nM	2.5 nM	CC(=O)N1CCN(c2ccc(CCc3ccc(CC(=O)NN)cc3)nn2)CC1 [Production Example 99, 2-(4-{2-[6-(4-acetylpiperazin-1-yl)pyridazin-3-yl]ethyl}phenyl)acetohydrazide trihydrochloride]
3.4 nM	2.1 nM	CC(=O)N1CCN(c2cnc(CCc3ccc(CC(=O)NN)cc3)cn2)CC1 [Production Example 101, 2-(4-{2-[5-(4-acetylpiperazin-1-yl)pyrazin-2-yl]ethyl}phenyl)acetohydrazide trihydrochloride]
19 nM	7.5 nM	NNC(=O)Cc1ccc(CCc2cc(N3CCNCC3)ncn2)cc1 [Production Example 106, 2-{4-[2-(6-piperazin-1-ylpyrimidin-4-yl)ethyl]phenyl}acetohydrazide tetrahydrochloride]
0.9 nM	0.7 nM	CC(=O)N1CCN(c2ccc(CCc3ccc(COC(=O)NN)cc3F)nc2)CC1 [Production Example 113, 4-{2-[5-(4-acetylpiperazin-1-yl)pyridin-2-yl]ethyl}-3-fluorobenzyl hydrazinecarboxylate trihydrochloride]
2 nM	1.2 nM	CC(=O)N1CCN(c2ccc(CCc3ccc(CNC(=O)NN)cc3F)nc2)CC1 [Production Example 114, N-(4-{2-[5-(4-acetylpiperazin-1-yl)pyridin-2-yl]ethyl}-3-fluorobenzyl)hydrazinecarboxamide trihydrochloride]
4 nM	10.1 nM	CC(=O)N1CCN(c2ccc(CCc3ccc(CCOC(=O)NN)s3)nc2)CC1 [Production Example 115, 2-(5-{2-[5-(4-acetylpiperazin-1-yl)pyridin-2-yl]ethyl}thiophen-2-yl)ethyl hydrazinecarboxylate]
9.5 nM	9.8 nM	CC(=O)N1CCN(c2ccc(CCc3ccc(C(=O)NN)s3)nc2)CC1 [Production Example 116, 5-{2-[5-(4-acetylpiperazin-1-yl)pyridin-2-yl]ethyl}thiophene-2-carbohydrazide]
18.7 nM	2.7 nM	CC(=O)N1CCN(c2ccc(CCc3ccc(CCNC(=O)NN)s3)nc2)CC1 [Production Example 117, N-[2-(5-{2-[5-(4-acetylpiperazin-1-yl)pyridin-2-yl]ethyl}thiophen-2-yl)ethyl]hydrazinecarboxamide]
4.7 nM	8.7 nM	CC(=O)N1CCN(c2ccc(CCc3ccc(CCC(=O)NN)cc3)nc2)CC1 [Production Example 119, 3-(4-{2-[5-(4-acetylpiperazin-1-yl)pyridin-2-yl]ethyl}phenyl)propanehydrazide trihydrochloride]
3.7 nM	0.6 nM	CC(=O)N1CCN(c2ccc(CCc3ccc(CC(=O)NN)s3)nc2)CC1 [Production Example 120, 2-(5-{2-[5-(4-acetylpiperazin-1-yl)pyridin-2-yl]ethyl}thiophen-2-yl)acetohydrazide]

SMILES	IC50 [1]	IC50 (rat VAP-1 enzyme (SSAO))
NNC(=O)Cc1ccc(CCc2csc(C3CCNCC3)n2)cc1 [Production Example 20, 2-{4-[2-(2-piperidin-4-yl-1,3-thiazol-4-yl)ethyl]phenyl}acetohydrazide dihydrochloride]	23.3 nM	5.1 nM
CCN(CC)c1ccc(CCc2ccc(CC(=O)NN)cc2)cc1 [Production Example 30, 2-(4-{2-[4-(diethylamino)phenyl]ethyl}phenyl)acetohydrazide dihydrochloride]	13 nM	2.2 nM
NNC(=O)Cc1ccc(CCc2ccc(N3CCCC3)nc2)cc1 [Production Example 44, 2-{4-[2-(6-pyrrolidin-1-ylpyridin-3-yl)ethyl]phenyl}acetohydrazide trihydrochloride]	18.3 nM	5.4 nM
NNC(=O)Cc1ccc(CCc2ccc(N3CCCCC3)nc2)cc1 [Production Example 45, 2-{4-[2-(6-piperidin-1-ylpyridin-3-yl)ethyl]phenyl}acetohydrazide trihydrochloride]	17.2 nM	1.2 nM
CCN(CCN)c1ccc(CCc2ccc(CC(=O)NN)cc2)cc1 [Production Example 83, 2-[4-(2-{4-[(2-aminoethyl)(ethyl)amino]phenyl}ethyl)phenyl]acetohydrazide trihydrochloride]	20.4 nM	5.8 nM
NNC(=O)Cc1ccc(CCc2ccc(N3CCNCC3)cn2)cc1 [Production Example 86, 2-{4-[2-(5-piperazin-1-ylpyridin-2-yl)ethyl]phenyl}acetohydrazide tetrahydrochloride]	9.8 nM	1 nM
CCN(CC)c1ccc(CCc2ccc(CC(=O)NN)cc2)nc1 [Production Example 88, 2-(4-{2-[5-(diethylamino)pyridin-2-yl]ethyl}phenyl)acetohydrazide trihydrochloride]	10.2 nM	0.9 nM
NNC(=O)Cc1ccc(CCc2cncc(N3CCNCC3)c2)cc1 [Production Example 102, 2-{4-[2-(5-piperazin-1-ylpyridin-3-yl)ethyl]phenyl}acetohydrazide tetrahydrochloride]	19.4 nM	9.4 nM
CC(=O)N1CCN(c2ccc(CCc3ccc(COC(=O)NN)cc3)nc2)CC1 [Production Example 108, 4-{2-[5-(4-acetylpiperazin-1-yl)pyridin-2-yl]ethyl}benzyl hydrazinecarboxylate trihydrochloride]	0.9 nM	0.8 nM
CC(=O)N1CCN(c2ccc(CCc3ccc(CNC(=O)NN)cc3)nc2)CC1 [Production Example 109, N-(4-{2-[5-(4-acetylpiperazin-1-yl)pyridin-2-yl]ethyl}benzyl)hydrazinecarboxamide trihydrochloride]	3.7 nM	1.4 nM
CC(=O)N1CCN(c2ccc(CCc3ccc(OC(=O)NN)cc3)nc2)CC1 [Production Example 110, 4-{2-[5-(4-acetylpiperazin-1-yl)pyridin-2-yl]ethyl}phenyl hydrazinecarboxylate trihydrochloride]	3.5 nM	1.6 nM
CC(=O)N1CCN(c2ccc(CCc3cccc(COC(=O)NN)c3)nc2)CC1 [Production Example 111, 3-{2-[5-(4-acetylpiperazin-1-yl)pyridin-2-yl]ethyl}benzyl hydrazinecarboxylate trihydrochloride]	0.5 nM	0.4 nM
CC(=O)N1CCN(c2ccc(CCc3cccc(CNC(=O)NN)c3)nc2)CC1 [Production Example 112, N-(3-{2-[5-(4-acetylpiperazin-1-yl)pyridin-2-yl]ethyl}benzyl)hydrazinecarboxamide trihydrochloride]	0.7 nM	0.7 nM

From patent US9603833B2, “Benzene or thiophene derivative and use thereof as VAP-1 inhibitor” (R-Tech Ueno, Ltd., priority 2008, dated 2017)
